From the supplement of paper PMC10307832

How the values were obtained:
Assay in all cases: relative viability (nuclei count vs DMSO), 5 days (fraction); higher = more cells survive
Vorinostat + Palbociclib = compound: O=C(CCCCCCC(=O)Nc1ccccc1)NO [Vorinostat] + CC(=O)c1c(C)c2cnc(Nc3ccc(N4CCNCC4)cn3)nc2n(C2CCCC2)c1=O [Palbociclib] (partner 0.5 µM)
How it was run: (§1)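 Cells from lung cancer lines were seeded into 1536-well plates and, one day later, dosed by pin tool. Treatments were either a single drug or a fixed dose of an anchor drug with five library-drug doses (not always all listed) in √10 steps. After 5 days, nuclei were stained in a one-step fixation (final 0.05% Triton X-100, 1% formaldehyde, 1 ug/ml Hoechst) and counted on 4× images, and relative viability is the treated-to-vehicle nuclei ratio, as the median of duplicate plates.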

Vorinostat + Bortezomib = compound: O=C(CCCCCCC(=O)Nc1ccccc1)NO [Vorinostat] + CC(C)C[C@H](NC(=O)[C@H](Cc1ccccc1)NC(=O)c1cnccn1)B(O)O [Bortezomib] (partner 0.002 µM)
How it was run: as §1

Vorinostat + Phenformin = compound: O=C(CCCCCCC(=O)Nc1ccccc1)NO [Vorinostat] + N=C(N)NC(=N)NCCc1ccccc1 [Phenformin] (partner 250 µM)
How it was run: as §1

Vorinostat + AZD7762 = compound: O=C(CCCCCCC(=O)Nc1ccccc1)NO [Vorinostat] + NC(=O)Nc1cc(-c2cccc(F)c2)sc1C(=O)N[C@H]1CCCNC1 [AZD7762] (partner 0.2 µM)
How it was run: as §1

Vorinostat + Pemetrexed = compound: O=C(CCCCCCC(=O)Nc1ccccc1)NO [Vorinostat] + Nc1nc2[nH]cc(CCc3ccc(C(=O)N[C@@H](CCC(=O)O)C(=O)O)cc3)c2c(=O)[nH]1 [Pemetrexed] (partner 0.2 µM)
How it was run: as §1

Cell Line	relative viability (Vorinostat + Palbociclib; first compound 0.253 µM)	relative viability (Vorinostat + Palbociclib; first compound 0.8 µM)	relative viability (Vorinostat + Palbociclib; first compound 2.53 µM)	relative viability (Vorinostat + Palbociclib; first compound 8 µM)	relative viability (Vorinostat + Bortezomib; first compound 0.253 µM)	relative viability (Vorinostat + Bortezomib; first compound 0.8 µM)	relative viability (Vorinostat + Bortezomib; first compound 2.53 µM)	relative viability (Vorinostat + Bortezomib; first compound 8 µM)	relative viability (Vorinostat + Phenformin; first compound 0.253 µM)	relative viability (Vorinostat + Phenformin; first compound 0.8 µM)	relative viability (Vorinostat + Phenformin; first compound 2.53 µM)	relative viability (Vorinostat + Phenformin; first compound 8 µM)	relative viability (Vorinostat + AZD7762; first compound 0.253 µM)	relative viability (Vorinostat + AZD7762; first compound 0.8 µM)	relative viability (Vorinostat + AZD7762; first compound 2.53 µM)	relative viability (Vorinostat + AZD7762; first compound 8 µM)	relative viability (Vorinostat + Pemetrexed; first compound 0.253 µM)	relative viability (Vorinostat + Pemetrexed; first compound 0.8 µM)	relative viability (Vorinostat + Pemetrexed; first compound 2.53 µM)	relative viability (Vorinostat + Pemetrexed; first compound 8 µM)
201T	0.363	0.357	0.379	0.242	1.11	1.1	1.1	0.641	0.478	0.446	0.406	0.236	0.527	0.595	0.495	0.197	0.327	0.323	0.253	0.25
A-427	0.522	0.496	0.331	0.227	0.991	1.04	0.723	0.21	0.389	0.396	0.229	0.139	0.67	0.459	0.239	0.156	1.02	0.925	0.433	0.196
ABC-1	0.696	0.563	0.344	0.137	0.297	0.281	0.175	0.194	0.254	0.307	0.183	0.156	0.875	0.587	0.309	0.125	–	–	–	–
BEN	0.433	0.455	0.301	0.155	0.941	0.479	0.201	0.0496	0.297	0.215	0.146	0.0911	0.645	0.661	0.439	0.125	0.712	0.572	0.474	0.145
CAL-12T	0.61	0.386	0.182	0.0984	1.22	0.984	0.406	0.148	0.685	0.562	0.312	0.0876	0.639	0.603	0.337	0.162	1.36	1.31	1.08	0.126
COR-L23	0.281	0.19	0.0948	0.0728	0.985	0.683	0.131	0.0488	0.368	0.322	0.107	0.0712	–	–	–	–	0.2	0.182	0.148	0.12
COR-L 105	0.402	0.396	0.283	0.284	1.3	0.617	0.292	0.267	0.609	0.54	0.199	0.234	–	–	–	–	1.21	1.25	0.7	0.281
ChaGo-K-1	0.943	0.874	0.529	0.182	0.954	0.932	0.467	0.282	0.551	0.538	0.45	0.183	0.862	0.867	0.567	0.173	0.254	0.26	0.254	0.218
EKVX	0.401	0.398	0.199	0.125	1.14	1.11	0.561	0.175	0.228	0.238	0.225	0.134	0.838	0.489	0.199	0.136	0.384	0.413	0.386	0.146
EMC-BAC-2	0.49	0.425	0.254	0.203	1.22	1.02	0.405	0.167	0.523	0.473	0.248	0.163	1.02	0.653	0.447	0.174	0.377	0.368	0.26	0.208
EPLC-272H	0.289	0.294	0.217	0.171	0.742	0.744	0.275	0.12	0.321	0.332	0.104	0.084	0.135	0.171	0.069	0.138	0.367	0.381	0.212	0.159
H3255	0.349	0.337	0.303	0.232	0.778	0.622	0.456	0.154	0.33	0.302	0.323	0.262	0.989	0.923	0.507	0.279	0.656	0.573	0.56	0.289
HARA	0.32	0.295	0.184	0.133	1.1	0.928	0.149	0.0288	0.443	0.364	0.231	0.0679	0.2	0.245	0.146	0.125	0.239	0.217	0.205	0.125
HCC-15	0.748	0.688	0.281	0.101	1.15	0.973	0.518	0.13	0.609	0.473	0.22	0.0895	1.39	1.11	1.06	0.363	0.219	0.216	0.172	0.099
HCC-44	0.989	0.969	0.812	0.301	0.886	0.883	0.514	0.109	0.147	0.108	0.0733	0.0646	1.01	1.02	0.879	0.526	0.663	0.683	0.628	0.485
HCC-78	0.467	0.518	0.438	0.344	0.495	0.265	0.119	0.126	0.719	0.58	0.292	0.22	0.451	0.464	0.223	0.199	0.888	0.852	0.875	0.868
IA-LM	–	–	–	–	1.03	0.547	0.161	0.0471	–	–	–	–	–	–	–	–	–	–	–	–
LK-2	0.724	0.585	0.104	0.0605	–	–	–	–	0.778	0.321	0.197	0.126	0.334	0.373	0.126	0.0415	0.278	0.262	0.138	0.036
NCI-H358	0.139	0.167	0.101	0.0793	–	–	–	–	0.5	0.47	0.115	0.082	0.466	0.312	0.14	0.159	0.155	0.155	0.152	0.0859

Cell Line	relative viability (Vorinostat + Palbociclib; first compound 0.253 µM)	relative viability (Vorinostat + Palbociclib; first compound 0.8 µM)	relative viability (Vorinostat + Palbociclib; first compound 2.53 µM)	relative viability (Vorinostat + Palbociclib; first compound 8 µM)	relative viability (Vorinostat + Bortezomib; first compound 0.253 µM)	relative viability (Vorinostat + Bortezomib; first compound 0.8 µM)	relative viability (Vorinostat + Bortezomib; first compound 2.53 µM)	relative viability (Vorinostat + Bortezomib; first compound 8 µM)	relative viability (Vorinostat + Phenformin; first compound 0.253 µM)	relative viability (Vorinostat + Phenformin; first compound 0.8 µM)	relative viability (Vorinostat + Phenformin; first compound 2.53 µM)	relative viability (Vorinostat + Phenformin; first compound 8 µM)	relative viability (Vorinostat + AZD7762; first compound 0.253 µM)	relative viability (Vorinostat + AZD7762; first compound 0.8 µM)	relative viability (Vorinostat + AZD7762; first compound 2.53 µM)	relative viability (Vorinostat + AZD7762; first compound 8 µM)	relative viability (Vorinostat + Pemetrexed; first compound 0.253 µM)	relative viability (Vorinostat + Pemetrexed; first compound 0.8 µM)	relative viability (Vorinostat + Pemetrexed; first compound 2.53 µM)	relative viability (Vorinostat + Pemetrexed; first compound 8 µM)
NCI-H520	0.351	0.31	0.19	0.133	0.605	0.164	0.13	0.107	0.717	0.482	0.374	0.164	–	–	–	–	0.831	0.663	0.322	0.17
NCI-H596	–	–	–	–	0.942	0.693	0.663	0.258	0.838	0.587	0.474	0.272	1.13	0.732	0.543	0.384	0.503	0.465	0.412	0.346
NCI-H661	0.437	0.377	0.286	0.32	0.839	0.933	0.439	0.185	0.38	0.3	0.213	0.268	–	–	–	–	0.926	0.78	0.455	0.355
NCI-H727	0.688	0.633	0.606	0.51	0.928	0.613	0.324	0.233	0.964	0.395	0.478	0.255	0.514	0.874	0.617	0.398	–	–	–	–
NCI-H1395	0.714	0.688	0.537	0.309	–	–	–	–	0.475	0.501	0.401	0.341	0.37	0.373	0.375	0.296	0.733	0.746	0.533	0.321
NCI-H1563	–	–	–	–	0.977	0.778	0.579	0.503	0.771	0.727	0.556	0.492	–	–	–	–	0.877	0.651	0.708	0.384
NCI-H1650	0.281	0.234	0.164	0.0922	0.22	0.178	0.179	0.142	0.412	0.393	0.164	0.14	–	–	–	–	0.307	0.341	0.29	0.18
NCI-H1703	–	–	–	–	0.262	0.23	0.156	0.133	–	–	–	–	0.126	–	0.189	0.0985	–	–	–	–
NCI-H1793	0.283	0.279	0.213	0.159	–	–	–	–	0.467	0.415	0.516	0.279	0.188	0.492	0.204	0.131	1.26	0.869	0.654	0.175
NCI-H1944	0.31	0.272	0.176	0.118	–	–	–	–	0.203	0.19	0.146	0.123	0.328	0.27	0.19	0.104	0.585	0.448	0.311	0.135
NCI-H2009	0.267	0.25	0.171	0.0986	1.32	0.567	0.233	0.126	0.545	0.496	0.319	0.144	–	–	–	–	0.993	0.955	0.666	0.131
NCI-H2023	0.467	0.375	0.199	0.0512	1.16	0.657	0.223	0.07	0.444	0.442	0.192	0.0722	–	–	–	–	0.233	0.182	0.103	0.067
NCI-H2170	0.407	0.345	0.253	0.102	–	–	–	–	0.481	0.394	0.384	0.164	1.23	0.923	0.332	0.106	0.249	0.242	0.222	0.114
NCI-H2228	0.713	0.431	0.22	0.0631	0.979	0.389	0.188	0.097	0.388	0.27	0.136	0.102	–	–	–	–	0.336	0.297	0.252	0.132
NCI-H2342	0.529	0.502	0.58	0.488	–	–	–	–	0.561	0.653	0.573	0.375	0.431	0.575	0.347	0.254	0.834	0.832	0.68	0.306
SK-LU-1	0.438	0.363	0.32	0.177	0.678	1.22	0.248	0.163	0.658	0.549	0.285	0.123	–	–	–	–	0.936	0.807	0.64	0.179
SK-MES-1	0.377	0.453	0.418	0.222	–	–	–	–	0.719	0.723	0.517	0.207	–	–	–	–	1.08	1.07	0.553	0.207
SW 1573	0.433	0.305	0.212	0.0703	1.11	1.1	0.565	0.0796	0.613	0.556	0.355	0.0821	–	–	–	–	1.2	1.05	0.346	0.0659
UMC-11	0.356	0.233	0.179	0.116	0.672	0.56	0.0652	0.0503	0.325	0.199	0.123	0.115	–	–	–	–	0.756	0.453	0.119	0.0862
